Data taken from US20120083522A1, “MODULATION OF INFLAMMATORY RESPONSES BY FACTOR XI” (Isis Pharmaceuitcals, inc., priority 2009, published 2012).
In the oligonucleotide strings, read from the 5' end, every base follows the letter of its sugar. An asterisk marks phosphorothioate; unmarked linkages are phosphodiester. Other units and linkages are bracketed, terminal groups are in braces. A string of capitals states the bases alone. e = 2'-O-(2-methoxyethyl) (MOE); [5mC] = 5-methylcytosine; d = 2'-deoxy (DNA)

System: human Factor XI mRNA
Assay: Antisense inhibition in HepG2 cells by microwalk gapmers, 75 nM, lipofectin (Example 3)
Type: cell-based
Conditions: HepG2 cells, 75 nM
Experimental: These gapmers were designed by creating gapmers shifted slightly upstream and downstream (i.e. “microwalk”) of the original gapmers from Table 3. Gapmers were also created with various motifs, e.g. 5-10-5 MOE, 3-14-3 MOE, and 2-13-5 MOE. These gapmers were tested in vitro. Cultured HepG2 cells at a density of 10,000 cells per well were transfected using lipofectin reagent with 75 nM antisense oligonucleotide. After a treatment period of approximately 24 hours, RNA was isolated from the cells and Factor XI mRNA levels were measured by quantitative real-time PCR. Factor XI mRNA levels were adjusted according to total RNA content, as measured by RIBOGREEN®. Results are presented as percent inhibition of Factor XI, relative to untreated control cells.
The chimeric antisense oligonucleotides in Table 4 were designed as 5-10-5 MOE, 3-14-3 MOE, and 2-13-5 MOE gapmers. The first listed gapmers in Table 4 are the original gapmers (see Table 3) from which the remaining gapmers were designed via microwalk and are designated by an asterisk. The 5-10-5 gapmers are 20 nucleotides in length, wherein the central gap segment is comprised of 10 2′-deoxynucleotides and is flanked on both sides (in the 5′ and 3′ directions) by wings comprising 5 nucleotides each. The 3-14-3 gapmers are 20 nucleotides in length, wherein the central gap segment is comprised of 14 2′-deoxynucleotides and is flanked on both sides (in the 5′ and 3′ directions) by wings comprising 3 nucleotides each. The 2-13-5 gapmers are 20 nucleotides in length, wherein the central gap segment is comprised of 13 2′-deoxynucleotides. The central gap is flanked on the 5′ end with a wing comprising 2 nucleotides and on the 3′ end with a wing comprising 5 nucleotides. For each of the motifs (5-10-5, 3-14-3, and 2-13-5), each nucleotide in the 5′ wing segment and each nucleotide in the 3′ wing segment has a 2′-MOE modification. The internucleoside linkages throughout each gapmer are phosphorothioate (P═S) linkages. All cytidine residues throughout each gapmer are 5-methylcytidines. “Target start site” indicates the 5′-most nucleotide to which the gapmer is targeted. “Target stop site” indicates the 3′-most nucleotide to which the gapmer is targeted. Each gapmer listed in Table 4 is targeted to SEQ ID NO: 1 (GENBANK Accession No. NM_000128.3).

[1] = oligonucleotides targeted to nucleobases 1275 to 1318 of SEQ ID NO: 1
[2] = oligonucleotides targeted to nucleobases 738 to 762 of SEQ ID NO: 1
[3] = oligonucleotides targeted to nucleobases 1018 to 1042 of SEQ ID NO: 1
[4] = oligonucleotides targeted to nucleobases 1062 to 1091 of SEQ ID NO: 1

Substance	% inhibition of human Factor XI mRNA levels [1] [%]	further results
416939 (antisense e[5mC]*eA*eG*d[5mC]*dG*dG*dA*d[5mC]*dG*dG*d[5mC]*dA*dT*dT*dG*dG*dT*eG*e[5mC]*eA) [compound 416939]	88	–
416940 (antisense eG*e[5mC]*eA*dG*d[5mC]*dG*dG*dA*d[5mC]*dG*dG*d[5mC]*dA*dT*dT*dG*dG*eT*eG*e[5mC]) [compound 416940]	92	–
416942 (antisense eT*eG*eG*d[5mC]*dA*dG*d[5mC]*dG*dG*dA*d[5mC]*dG*dG*d[5mC]*dA*dT*dT*eG*eG*eT) [compound 416942]	85	–
416943 (antisense e[5mC]*eT*eG*dG*d[5mC]*dA*dG*d[5mC]*dG*dG*dA*d[5mC]*dG*dG*d[5mC]*dA*dT*eT*eG*eG) [compound 416943]	92	–
416944 (antisense eA*e[5mC]*eT*dG*dG*d[5mC]*dA*dG*d[5mC]*dG*dG*dA*d[5mC]*dG*dG*d[5mC]*dA*eT*eT*eG) [compound 416944]	83	–
416975 (antisense e[5mC]*e[5mC]*dG*dT*dG*d[5mC]*dA*dT*d[5mC]*dT*dT*dT*d[5mC]*dT*dT*eG*eG*e[5mC]*eA*eT) [compound 416975]	–	% inhibition of human Factor XI mRNA levels [2]: 87%
416976 (antisense eT*e[5mC]*d[5mC]*dG*dT*dG*d[5mC]*dA*dT*d[5mC]*dT*dT*dT*d[5mC]*dT*eT*eG*eG*e[5mC]*eA) [compound 416976]	–	% inhibition of human Factor XI mRNA levels [2]: 83%
416977 (antisense eA*eT*d[5mC]*d[5mC]*dG*dT*dG*d[5mC]*dA*dT*d[5mC]*dT*dT*dT*d[5mC]*eT*eT*eG*eG*e[5mC]) [compound 416977]	–	% inhibition of human Factor XI mRNA levels [2]: 82%
416978 (antisense e[5mC]*eA*dT*d[5mC]*d[5mC]*dG*dT*dG*d[5mC]*dA*dT*d[5mC]*dT*dT*dT*e[5mC]*eT*eT*eG*eG) [compound 416978]	–	% inhibition of human Factor XI mRNA levels [2]: 76%
416979 (antisense eT*e[5mC]*dA*dT*d[5mC]*d[5mC]*dG*dT*dG*d[5mC]*dA*dT*d[5mC]*dT*dT*eT*e[5mC]*eT*eT*eG) [compound 416979]	–	% inhibition of human Factor XI mRNA levels [2]: 63%
416980 (antisense eG*eT*d[5mC]*dA*dT*d[5mC]*d[5mC]*dG*dT*dG*d[5mC]*dA*dT*d[5mC]*dT*eT*eT*e[5mC]*eT*eT) [compound 416980]	–	% inhibition of human Factor XI mRNA levels [2]: 87%
416981 (antisense e[5mC]*e[5mC]*dG*dG*dG*dA*dT*dG*dA*dT*dG*dA*dG*dT*dG*e[5mC]*eA*eG*eA*eT) [compound 416981]	–	% inhibition of human Factor XI mRNA levels [3]: 87%
416982 (antisense eA*e[5mC]*d[5mC]*dG*dG*dG*dA*dT*dG*dA*dT*dG*dA*dG*dT*eG*e[5mC]*eA*eG*eA) [compound 416982]	–	% inhibition of human Factor XI mRNA levels [3]: 84%
416983 (antisense eA*eA*d[5mC]*d[5mC]*dG*dG*dG*dA*dT*dG*dA*dT*dG*dA*dG*eT*eG*e[5mC]*eA*eG) [compound 416983]	–	% inhibition of human Factor XI mRNA levels [3]: 86%
416986 (antisense eA*eT*dT*d[5mC]*dT*dT*dT*dG*dG*dG*d[5mC]*d[5mC]*dA*dT*dT*e[5mC]*e[5mC]*eT*eG*eG) [compound 416986]	–	% inhibition of human Factor XI mRNA levels [4]: 88%
416987 (antisense eG*eA*dT*dT*d[5mC]*dT*dT*dT*dG*dG*dG*d[5mC]*d[5mC]*dA*dT*eT*e[5mC]*e[5mC]*eT*eG) [compound 416987]	–	% inhibition of human Factor XI mRNA levels [4]: 80%
416988 (antisense eA*eG*dA*dT*dT*d[5mC]*dT*dT*dT*dG*dG*dG*d[5mC]*d[5mC]*dA*eT*eT*e[5mC]*e[5mC]*eT) [compound 416988]	–	% inhibition of human Factor XI mRNA levels [4]: 76%
416990 (antisense eT*eG*dA*dG*dA*dT*dT*d[5mC]*dT*dT*dT*dG*dG*dG*d[5mC]*e[5mC]*eA*eT*eT*e[5mC]) [compound 416990]	–	% inhibition of human Factor XI mRNA levels [4]: 76%
416991 (antisense eT*eT*dG*dA*dG*dA*dT*dT*d[5mC]*dT*dT*dT*dG*dG*dG*e[5mC]*e[5mC]*eA*eT*eT) [compound 416991]	–	% inhibition of human Factor XI mRNA levels [4]: 87%
416992 (antisense eT*eT*dT*dG*dA*dG*dA*dT*dT*d[5mC]*dT*dT*dT*dG*dG*eG*e[5mC]*e[5mC]*eA*eT) [compound 416992]	–	% inhibition of human Factor XI mRNA levels [4]: 84%

Substance	% inhibition of human Factor XI mRNA levels [1] [%]	further results
416994 (antisense eT*e[5mC]*dT*dT*dT*dG*dA*dG*dA*dT*dT*d[5mC]*dT*dT*dT*eG*eG*eG*e[5mC]*e[5mC]) [compound 416994]	–	% inhibition of human Factor XI mRNA levels [4]: 83%
416995 (antisense eT*eT*d[5mC]*dT*dT*dT*dG*dA*dG*dA*dT*dT*d[5mC]*dT*dT*eT*eG*eG*eG*e[5mC]) [compound 416995]	–	% inhibition of human Factor XI mRNA levels [4]: 64%
416996 (antisense eT*eT*dT*d[5mC]*dT*dT*dT*dG*dA*dG*dA*dT*dT*d[5mC]*dT*eT*eT*eG*eG*eG) [compound 416996]	–	% inhibition of human Factor XI mRNA levels [4]: 22%
416997 (antisense eA*e[5mC]*dA*dG*dT*dT*dT*d[5mC]*dT*dG*dG*d[5mC]*dA*dG*dG*e[5mC]*e[5mC]*eT*e[5mC]*eG) [compound 416997]	84	–
416998 (antisense e[5mC]*eA*d[5mC]*dA*dG*dT*dT*dT*d[5mC]*dT*dG*dG*d[5mC]*dA*dG*eG*e[5mC]*e[5mC]*eT*e[5mC]) [compound 416998]	88	–
417001 (antisense eG*eT*dG*d[5mC]*dA*d[5mC]*dA*dG*dT*dT*dT*d[5mC]*dT*dG*dG*e[5mC]*eA*eG*eG*e[5mC]) [compound 417001]	83	–
417004 (antisense eT*eT*dG*dG*dT*dG*d[5mC]*dA*d[5mC]*dA*dG*dT*dT*dT*d[5mC]*eT*eG*eG*e[5mC]*eA) [compound 417004]	86	–
417005 (antisense eA*eT*dT*dG*dG*dT*dG*d[5mC]*dA*d[5mC]*dA*dG*dT*dT*dT*e[5mC]*eT*eG*eG*e[5mC]) [compound 417005]	79	–
417006 (antisense e[5mC]*eA*dT*dT*dG*dG*dT*dG*d[5mC]*dA*d[5mC]*dA*dG*dT*dT*eT*e[5mC]*eT*eG*eG) [compound 417006]	81	–
417007 (antisense eG*e[5mC]*dA*dT*dT*dG*dG*dT*dG*d[5mC]*dA*d[5mC]*dA*dG*dT*eT*eT*e[5mC]*eT*eG) [compound 417007]	82	–
417008 (antisense eG*eG*d[5mC]*dA*dT*dT*dG*dG*dT*dG*d[5mC]*dA*d[5mC]*dA*dG*eT*eT*eT*e[5mC]*eT) [compound 417008]	82	–
417009 (antisense e[5mC]*eG*dG*d[5mC]*dA*dT*dT*dG*dG*dT*dG*d[5mC]*dA*d[5mC]*dA*eG*eT*eT*eT*e[5mC]) [compound 417009]	85	–
417010 (antisense eA*e[5mC]*dG*dG*d[5mC]*dA*dT*dT*dG*dG*dT*dG*d[5mC]*dA*d[5mC]*eA*eG*eT*eT*eT) [compound 417010]	81	–
417011 (antisense eG*eA*d[5mC]*dG*dG*d[5mC]*dA*dT*dT*dG*dG*dT*dG*d[5mC]*dA*e[5mC]*eA*eG*eT*eT) [compound 417011]	86	–
417012 (antisense eG*eG*dA*d[5mC]*dG*dG*d[5mC]*dA*dT*dT*dG*dG*dT*dG*d[5mC]*eA*e[5mC]*eA*eG*eT) [compound 417012]	72	–
417013 (antisense e[5mC]*eG*dG*dA*d[5mC]*dG*dG*d[5mC]*dA*dT*dT*dG*dG*dT*dG*e[5mC]*eA*e[5mC]*eA*eG) [compound 417013]	86	–
417014 (antisense eG*e[5mC]*dG*dG*dA*d[5mC]*dG*dG*d[5mC]*dA*dT*dT*dG*dG*dT*eG*e[5mC]*eA*e[5mC]*eA) [compound 417014]	87	–
417015 (antisense eA*eG*d[5mC]*dG*dG*dA*d[5mC]*dG*dG*d[5mC]*dA*dT*dT*dG*dG*eT*eG*e[5mC]*eA*e[5mC]) [compound 417015]	87	–
417016 (antisense e[5mC]*eA*dG*d[5mC]*dG*dG*dA*d[5mC]*dG*dG*d[5mC]*dA*dT*dT*dG*eG*eT*eG*e[5mC]*eA) [compound 417016]	85	–
